From ChEMBL document CHEMBL4043128, “Design, synthesis and biological evaluation of Lenalidomide derivatives as tumor angiogenesis inhibitor” (Bioorg Med Chem Lett, 2017)
In brackets after ≈: the same amount, converted by molar mass. Activity calls are given as the source filed them. The calls are words filed in the database; no cut-off is given here.

Experiments:
EC9706 [1] = test: Antiproliferative activity against human EC9706 cells at 150 ug/mL after 48 hrs by CCK-8 assay; assay type: functional, cell-based
EC9706 [2] = test: Antiproliferative activity against human EC9706 cells at >= 600 ug/mL after 48 hrs by CCK-8 assay relative to control; assay type: functional
EC9706 [3] = test: Antiproliferative activity against human EC9706 cells after 48 hrs by CCK-8 assay; assay type: functional, cell-based; conditions: for IC50: EC9706, 48 h

| Structure (SMILES) | Activity (EC9706 [1]) | Activity (EC9706 [2]) | Activity (EC9706 [3]) | IC50 (EC9706 [3]) |
| --- | --- | --- | --- | --- |
| Cc1ccc(C(=O)Nc2cccc3c2CN(C2CCC(=O)NC2=O)C3=O)cc1 (stereo unspecified) | Active | 100% | Dose-dependent effect | 262 µg/mL (≈ 694 µM) |
| Cc1ccc(S(=O)(=O)Nc2cccc3c2CN(C2CCC(=O)NC2=O)C3=O)cc1 (stereo unspecified) | Active | 100% | Dose-dependent effect | 225 µg/mL (≈ 545 µM) |
| Nc1cccc2c1CN(C1CCC(=O)NC1=O)C2=O (stereo unspecified) [LENALIDOMIDE] | Active | 100% | Dose-dependent effect | 340 µg/mL (≈ 1310 µM) |
| Cc1ccc(CNc2cccc3c2CN(C2CCC(=O)NC2=O)C3=O)cc1 (stereo unspecified) | Active | 100% | Dose-dependent effect | 310 µg/mL (≈ 852 µM) |
